The first assay deals with T1, human PTH1 receptor (Homo sapiens, UniProt Q03431).
T1 sequence (Q03431 27-593): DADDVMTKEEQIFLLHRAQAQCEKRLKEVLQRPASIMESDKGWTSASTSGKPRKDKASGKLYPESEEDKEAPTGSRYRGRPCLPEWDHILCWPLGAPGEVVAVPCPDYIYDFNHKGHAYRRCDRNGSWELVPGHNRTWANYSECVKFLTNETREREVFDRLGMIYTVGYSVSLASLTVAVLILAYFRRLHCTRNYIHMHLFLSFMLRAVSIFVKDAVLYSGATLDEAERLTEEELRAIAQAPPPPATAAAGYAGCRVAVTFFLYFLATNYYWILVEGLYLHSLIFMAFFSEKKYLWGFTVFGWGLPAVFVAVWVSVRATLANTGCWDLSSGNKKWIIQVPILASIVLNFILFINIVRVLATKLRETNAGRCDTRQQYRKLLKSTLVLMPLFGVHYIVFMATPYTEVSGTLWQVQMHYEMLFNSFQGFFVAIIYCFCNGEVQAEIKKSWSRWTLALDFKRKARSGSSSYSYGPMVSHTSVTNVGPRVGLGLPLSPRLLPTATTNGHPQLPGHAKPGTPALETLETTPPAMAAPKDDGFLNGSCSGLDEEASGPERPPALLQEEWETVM
Nature of the assay: In vitro cAMP signal activity in HKRK-B7 cells (LLC-PK1 cells overexpressing the human PTH1 receptor). The class given is cell-based. Conditions: 0.1 µM.
Take `Cc1cc2ccc1CCS(=O)(=O)N1CCC3(CC1)N=C(NC3=O)c1cc(cc(C(F)(F)F)c1)OCC(F)(F)C(F)(F)C(F)(F)COCCN(C)C2=O` [Compound 1441]: the “cAMP production activity (%)” value was determined as 5.0%.

Still in this assay, the particulars now being: HKRK-B7 cells; compound at 1×10^−3 M; cAMP produced as percentage of that produced by hPTH(1-34) at 100 nM.
For the compound `CC(=O)Nc1ccc(CCS(=O)(=O)N2CCC3(CC2)N=C(Nc2cccc(C(F)(F)F)c2)NC3=O)c(C)c1` [Compound 1402, N-(3-methyl-4-{2-[4-oxo-2-(3-trifluoromethyl-phenylamino)-1,3,8-triaza-spiro[4.5]dec-1-ene-8-sulfonyl]-ethyl}-phenyl)-acetamide], the “cAMP production activity (%)” value came out at 69%.

On to `CCCCC1CCN(C2=NC3(CCN(S(=O)(=O)CCc4ccc(C(=O)N(C)C)cc4C)CC3)C(=O)N2)CC1` [Compound 1403, 4-{2-[2-(4-Butyl-piperidin-1-yl)-4-oxo-1,3,8-triaza-spiro[4.5]dec-1-ene-8-sulfonyl]-ethyl}-3,N,N-trimethyl-benzamide], for which the “cAMP production activity (%)” value turned out to be 66%.

In the case of `CCCCC1CCC(NC2=NC3(CCN(S(=O)(=O)CCc4ccc(C(=O)N(C)C)cc4C)CC3)C(=O)N2)CC1` (stereo not shown) [Compound 1404, 4-{2-[2-(4-butyl-cyclohexylamino)-4-oxo-1,3,8-triaza-spiro[4.5]dec-1-ene-8-sulfonyl]-ethyl}-3,N,N-trimethyl-benzamide], the “cAMP production activity (%)” value came out at 64%.

For the compound `C=CCCCN(C)C(=O)c1ccc(CCS(=O)(=O)N2CCC3(CC2)N=C(c2cc(OCCC=C)cc(C(F)(F)F)c2)NC3=O)c(C)c1` [Compound 1405, 4-{2-[2-(3-But-3-enyloxy-5-trifluoromethyl-phenyl)-4-oxo-1,3,8-triaza-spiro[4.5]dec-1-ene-8-sulfonyl]-ethyl}-3,N-dimethyl-N-pent-4-enyl-benzamide], the “cAMP production activity (%)” value worked out at 51%.

Take `Cc1cc2ccc1CCS(=O)(=O)N1CCC3(CC1)N=C(NC3=O)c1cc(cc(C(F)(F)F)c1)OCCC=CCCCN(C)C2=O` [Compound 1406]: the “cAMP production activity (%)” value was 7.3%.

Take `Cc1cc2ccc1CCS(=O)(=O)N1CCC3(CC1)N=C(NC3=O)c1cc(cc(C(F)(F)F)c1)OCCCCCCCN(C)C2=O` [Compound 1407]: the “cAMP production activity (%)” value turned out to be 6.6%.

Take `Cc1cc2ccc1CCS(=O)(=O)N1CCC3(CC1)N=C(NC3=O)c1cc(cc(C(F)(F)F)c1)OCC/C=C\CN(C)C2=O` [Compound 1408]: the “cAMP production activity (%)” value is 5.1%.

Consider `Cc1cc2ccc1CCS(=O)(=O)N1CCC3(CC1)N=C(NC3=O)c1cc(cc(C(F)(F)F)c1)OCCCCCN(C)C2=O` [Compound 1409], for which the “cAMP production activity (%)” value stood at 13%.

Regarding `Cc1cc2ccc1CCS(=O)(=O)N1CCC3(CC1)N=C(NC3=O)c1cc(cc(C(F)(F)F)c1)OCCCCCCCCN(C)C2=O` [Compound 1412], the “cAMP production activity (%)” value is given as 7.2%.

As for `Cc1cc2ccc1CCS(=O)(=O)N1CCC3(CC1)N=C(NC3=O)c1cc(cc(C(F)(F)F)c1)OCC/C=C/CCCCCN(C)C2=O` [Compound 1413], the “cAMP production activity (%)” value came out at 57%.

For `Cc1cc2ccc1CCS(=O)(=O)N1CCC3(CC1)N=C(NC3=O)c1cc(cc(C(F)(F)F)c1)OCC/C=C\CCCCCN(C)C2=O` [Compound 1414], the “cAMP production activity (%)” value was determined as 47%.

As for `Cc1cc2ccc1CCS(=O)(=O)N1CCC3(CC1)N=C(NC3=O)c1cc(cc(C(F)(F)F)c1)OCCCCCCCCCN(C)C2=O` [Compound 1415], the “cAMP production activity (%)” value was 49%.

As to `Cc1cc2ccc1CCS(=O)(=O)N1CCC3(CC1)N=C(NC3=O)c1cc(cc(C(F)(F)F)c1)OCC/C=C/CCCCCCN(C)C2=O` [Compound 1416], the “cAMP production activity (%)” value is reported as 48%.

In the case of `Cc1cc2ccc1CCS(=O)(=O)N1CCC3(CC1)N=C(NC3=O)c1cc(cc(C(F)(F)F)c1)OCC/C=C\CCCCCCN(C)C2=O` [Compound 1417], the “cAMP production activity (%)” value is reported as 49%.

With `Cc1cc2ccc1CCS(=O)(=O)N1CCC3(CC1)N=C(NC3=O)c1cc(cc(C(F)(F)F)c1)OCCCCCCCCCCN(C)C2=O` [Compound 1418], the “cAMP production activity (%)” value is 36%.

With `C=CCCOc1cc(C2=NC3(CCN(S(=O)(=O)CCc4ccc(C(=O)N(C)CCOCC=C)cc4C)CC3)C(=O)N2)cc(C(F)(F)F)c1` [Compound 1419, N-(2-Allyloxy-ethyl)-4-{2-[2-(3-but-3-enyloxy-5-trifluoromethyl-phenyl)-4-oxo-1,3,8-triaza-spiro[4.5]dec-1-ene-8-sulfonyl]-ethyl}-3,N-dimethyl-benzamide], the “cAMP production activity (%)” value is 70%.

Consider `Cc1cc2ccc1CCS(=O)(=O)N1CCC3(CC1)N=C(NC3=O)c1cc(cc(C(F)(F)F)c1)OCC/C=C/COCCN(C)C2=O` [Compound 1420], for which the “cAMP production activity (%)” value came to 20%.

Turning to `Cc1cc2ccc1CCS(=O)(=O)N1CCC3(CC1)N=C(NC3=O)c1cc(cc(C(F)(F)F)c1)OCCCCCOCCN(C)C2=O` [Compound 1421], the “cAMP production activity (%)” value worked out at 49%.

In the case of `Cc1cc2ccc1CCS(=O)(=O)N1CCC3(CC1)N=C(NC3=O)c1cc(cc(C(F)(F)F)c1)OCC/C=C/CNC(=O)CN(C)C2=O` [Compound 1422], the “cAMP production activity (%)” value is given as 15%.

Regarding `Cc1cc2ccc1CCS(=O)(=O)N1CCC3(CC1)N=C(NC3=O)c1cc(cc(C(F)(F)F)c1)OCCC/C=C\NC(=O)CN(C)C2=O` [Compound 1423], the “cAMP production activity (%)” value came out at 17%.

Turning to `Cc1cc2ccc1CCS(=O)(=O)N1CCC3(CC1)N=C(NC3=O)c1cc(cc(C(F)(F)F)c1)OCC/C=C/CO[C@H]1CN(C[C@@H]1O)C2=O` [Compound 1424], the “cAMP production activity (%)” value was 29%.

Consider `Cc1cc2ccc1CCS(=O)(=O)N1CCC3(CC1)N=C(NC3=O)c1cc(cc(C(F)(F)F)c1)OCCCCCO[C@H]1CN(C[C@@H]1O)C2=O` [Compound 1425], for which the “cAMP production activity (%)” value stood at 32%.

For `Cc1cc2ccc1CCS(=O)(=O)N1CCC3(CC1)N=C(NC3=O)c1cc(cc(C(F)(F)F)c1)OCC/C=C/COCCNC2=O` [Compound 1426], the “cAMP production activity (%)” value was found to be 5.4%.

For the compound `Cc1cc2ccc1CCS(=O)(=O)N1CCC3(CC1)N=C(NC3=O)c1cc(cc(C(F)(F)F)c1)OCCCCCOCCNC2=O` [Compound 1427], the “cAMP production activity (%)” value is 72%.

For the compound `Cc1cc2ccc1CCS(=O)(=O)N1CCC3(CC1)N=C(NC3=O)c1cc(cc(C(F)(F)F)c1)OCC/C=C/COCCN(CCO)C2=O` [Compound 1428], the “cAMP production activity (%)” value was found to be 67%.

Consider `Cc1cc2ccc1CCS(=O)(=O)N1CCC3(CC1)N=C(NC3=O)c1cc(cc(C(F)(F)F)c1)OCCCCCOCCN(CCO)C2=O` [Compound 1429], for which the “cAMP production activity (%)” value was 8.9%.

Consider `Cc1cc2ccc1CCS(=O)(=O)N1CCC3(CC1)N=C(NC3=O)c1cc(cc(C(F)(F)F)c1)OCCC(O)C(O)CCCN(C)C2=O` (stereo not shown) [Compound 1430], for which the “cAMP production activity (%)” value amounted to 13%.

Regarding `Cc1cc2ccc1CCS(=O)(=O)N1CCC3(CC1)N=C(NC3=O)c1ccc(C(F)(F)F)c(c1)OCCCC=COCCN(C)C2=O` [Compound 1431], the “cAMP production activity (%)” value worked out at 15%.

With `Cc1cc2ccc1CCS(=O)(=O)N1CCC3(CC1)N=C(NC3=O)c1ccc(C(F)(F)F)c(c1)OCCCCCOCCN(C)C2=O` [Compound 1432], the “cAMP production activity (%)” value came out at 18%.

As for `CCCCc1ccc2cc1OCCCCCOCCN(C)C(=O)c1ccc(c(C)c1)CCS(=O)(=O)N1CCC3(CC1)N=C2NC3=O` [Compound 1434], the “cAMP production activity (%)” value came to 54%.

Regarding `Cc1cc2ccc1CCS(=O)(=O)N1CCC3(CC1)N=C(NC3=O)c1cc(cc(C(F)(F)F)c1)OCCC/C=C/COCCN(C)C2=O` [Compound 1436], the “cAMP production activity (%)” value turned out to be 54%.

For the compound `Cc1cc2ccc1CCS(=O)(=O)N1CCC3(CC1)N=C(NC3=O)c1cc(cc(C(F)(F)F)c1)OCCCCCCOCCN(C)C2=O` [Compound 1437], the “cAMP production activity (%)” value amounted to 57%.

With `Cc1cc2ccc1CCS(=O)(=O)N1CCC3(CC1)N=C(NC3=O)c1cc(cc(C(F)(F)F)c1)OCCOCCOCCN(C)C2=O` [Compound 1438], the “cAMP production activity (%)” value came to 40%.

In the case of `Cc1cc2ccc1CCS(=O)(=O)N1CCC3(CC1)N=C(NC3=O)c1cc(cc(C(F)(F)F)c1)OCC[C@H](O)[C@H](O)COCCN(C)C2=O` [Compound 1439], the “cAMP production activity (%)” value turned out to be 18%.

Regarding `Cc1cc2ccc1CCS(=O)(=O)N1CCC3(CC1)N=C(NC3=O)c1cc(cc(C(F)(F)F)c1)OCCOCCNC(=O)CN(C)C2=O` [Compound 1440], the “cAMP production activity (%)” value amounted to 10%.

With `Cc1cc2ccc1CCS(=O)(=O)N1CCC3(CC1)N=C(NC3=O)c1cc(cc(C(F)(F)F)c1)OCCc1cn(nn1)CCCN(C)C2=O` [Compound 1442], the “cAMP production activity (%)” value came out at 9.3%.

In the case of `C=CCCCCCCCC(=O)N(C)c1cc(C)c(CCS(=O)(=O)N2CCC3(CC2)N=C(CCCCC=C)NC3=O)c(C)c1` [Compound 1443, dec-9-enoic acid {4-[2-(2-hex-5-enyl-4-oxo-1,3,8-triaza-spiro[4.5]dec-1-ene-8-sulfonyl)-ethyl]-3,5-dimethyl-phenyl}-methyl-amide], the “cAMP production activity (%)” value worked out at 61%.

Still in this assay, the particulars now being: HKRK-B7 cells; compound at 1×10^−3 M; cAMP produced as percentage of that produced by hPTH(1-34) at 100 nM; 0.1 µM.
Consider `Cc1cc2ccc1CCS(=O)(=O)N1CCC3(CC1)N=C(NC3=O)c1cc(cc(C(F)(F)F)c1)OCCC=CCCCCN(C)C2=O` [Compound 1410], for which the “cAMP production activity (%)” value was 51%.

With `Cc1cc2ccc1CCS(=O)(=O)N1CCC3(CC1)N=C(NC3=O)c1cc(cc(C(F)(F)F)c1)OCCC=CCCCCN(C)C2=O` [Compound 1411], the “cAMP production activity (%)” value was 38%.

Source of the values: patent US9169254B2, “Spiroimidazolone derivative” (Chugai Seiyaku Kabushiki Kaisha, priority 2009, dated 2015).
